Reference: patent US8063008B2, “Enzymatic production of peracids using perhydrolytic enzymes” (E. I. du Pont de Nemours and Company, priority 2005, dated 2011)
Values after ≈ are worked out from the molar mass of the structure shown. Values joined by “and” are separate entries in the source; they are usually repeats but may differ in a detail not shown here. Identical values can stand only once.

Tested on: E. coli ATCC 11229
Assay: Determination of Minimum Biocidal Concentration (MBC), XTT reduction inhibition (Example 21)
Assay type: cell-based
Conditions: for Minimum Biocidal Concentration (MBC): E. coli ATCC 11229, 1.35×10^6 CFU/mL, 10 minutes at room temperature, XTT, six-log kill; for replicate OD (450 nm): replicates 1-8
From the text: The method described by J. Gabrielson, et al. (J. Microbiol. Methods 50: 63-73 (2002)) was employed for determination of the Minimum Biocidal Concentration (MBC) of peracids, or for determination of the MBC of hydrogen peroxide and enzyme substrates. The assay method is based on XTT reduction inhibition, where XTT ((2,3-bis[2-methoxy-4-nitro-5-sulfophenyl]-5-[(phenylamino)carbonyl]-2H-tetrazolium, inner salt, monosodium salt) is a redox dye that indicates microbial respiratory activity by a change in optical density (OD) measured at 490 nm or 450 nm. However, there are a variety of other methods available for testing the activity of disinfectants and antiseptics including, but not limited to viable plate counts, direct microscopic counts, dry weight, turbidity measurements, absorbance, and bioluminescence (see, for example Brock, Semour S., Disinfection, Sterilization, and Preservation, 5th edition, Lippincott Williams & Wilkins, Philadelphia, Pa., USA; 2001).
The filtered enzyme-generated product mixture was diluted 1:5 with sterile water, and the resulting solution was further diluted with sterile water in four 1:1 serial dilutions to obtain the concentrations of PAA and hydrogen peroxide listed in Table 22.
The 1:5 dilution and four serial dilutions were evaluated for biocidal activity by mixing 0.100 mL of the PAA-containing solution with 0.100 mL of an inoculum containing 2.7×10^6 CFU/mL of E. coli ATCC 11229 (American Type Culture Collection, Manassas, Va.) in Millers LB broth diluted with Butterfield Buffer; eight replicates of each mixture were contained in individual wells of a sterile 96-well microtiter plate. After the resulting cell suspensions were allowed to stand for 10 minutes at room temperature, they were tested for viability using the growth indicator XTT (2,3-bis[2-methoxy-4-nitro-5-sulfophenyl]-5-[(phenylamino)carbonyl]-2H-tetrazolium, inner salt, monosodium salt; CAS RN 111072-31-2) according to the method of Gabrielson et al. (J. Microbiol. Methods, 50:63-73 (2002)).
Separately, the cell inoculum was treated with sterile solutions of triacetin (Table 24) or hydrogen peroxide in 50 mM phosphate buffer (pH 6.5) (Table 25) at the concentrations present in each of the biocide dilutions in Table 23 to determine the MBC for these components of the biocide solution.

Compound: CC(=O)OO [peracetic acid]
- Minimum Biocidal Concentration (MBC) (listed as PAA): > 2.4 ppm
- MBC (Escherichia coli, ATCC11229, 10 min, read-out: Minimum Biocidal Concentration (MBC), E. coli ATCC 11229, 1.35×10^6 CFU/mL, 10 minutes at room temperature, XTT, six-log kill): 2.4 µg/mL (≈ 31.6 µM)
- blank-corrected mean OD (PAA 1.2 ppm, H2O2 40.2 ppm): 0.203
- mean replicate OD (450 nm) (PAA 1.2 ppm, H2O2 40.2 ppm): 0.617
- replicate OD (450 nm) (PAA 1.2 ppm, H2O2 40.2 ppm): 0.674 and 0.635 and 0.658 and 0.625 and 0.639 and 0.520 and 0.496 and 0.692
- blank-corrected mean OD (PAA 2.4 ppm, H2O2 80.4 ppm): 0.007
- mean replicate OD (450 nm) (PAA 2.4 ppm, H2O2 80.4 ppm): 0.421
- replicate OD (450 nm) (PAA 2.4 ppm, H2O2 80.4 ppm): 0.400 and 0.397 and 0.403 and 0.401 and 0.409 and 0.407 and 0.543 and 0.406
- blank-corrected mean OD (PAA 4.8 ppm, H2O2 160.8 ppm): −0.005
- mean replicate OD (450 nm) (PAA 4.8 ppm, H2O2 160.8 ppm): 0.409
- replicate OD (450 nm) (PAA 4.8 ppm, H2O2 160.8 ppm): 0.393 and 0.388 and 0.399 and 0.398 and 0.404 and 0.401 and 0.471 and 0.418
- blank-corrected mean OD (PAA 9.6 ppm, H2O2 321.6 ppm): −0.009
- mean replicate OD (450 nm) (PAA 9.6 ppm, H2O2 321.6 ppm): 0.405
- replicate OD (450 nm) (PAA 9.6 ppm, H2O2 321.6 ppm): 0.398 and 0.392 and 0.395 and 0.404 and 0.409 and 0.394 and 0.422 and 0.427
- blank-corrected mean OD (PAA 19.15 ppm, H2O2 643.1 ppm): −0.029
- mean replicate OD (450 nm) (PAA 19.15 ppm, H2O2 643.1 ppm): 0.388
- replicate OD (450 nm) (PAA 19.15 ppm, H2O2 643.1 ppm): 0.383 and 0.379 and 0.387 and 0.381 and 0.382 (2×) and 0.403 (2×)

Compound: CC(=O)OO [Commercially-Available Peracetic Acid, peracetic acid, reference compound]
- Minimum Biocidal Concentration (MBC) (listed as commercial source of peracetic acid): > 2.3 ppm
- blank-corrected mean OD (commercial PAA 1.15 ppm): 1.138
- mean replicate OD (450 nm) (commercial PAA 1.15 ppm): 1.410
- replicate OD (450 nm) (commercial PAA 1.15 ppm): 1.343 and 1.377 and 1.368 and 1.378 and 1.324 and 1.386 and 1.734 and 1.367
- blank-corrected mean OD (commercial PAA 2.3 ppm): 0.026
- mean replicate OD (450 nm) (commercial PAA 2.3 ppm): 0.298
- replicate OD (450 nm) (commercial PAA 2.3 ppm): 0.292 (2×) and 0.291 and 0.294 and 0.303 (2×) and 0.318 and 0.288
- blank-corrected mean OD (commercial PAA 4.7 ppm): 0.027
- mean replicate OD (450 nm) (commercial PAA 4.7 ppm): 0.298
- replicate OD (450 nm) (commercial PAA 4.7 ppm): 0.294 (2×) and 0.295 and 0.298 and 0.293 and 0.304 and 0.310 and 0.297
- blank-corrected mean OD (commercial PAA 9.4 ppm): 0.024
- mean replicate OD (450 nm) (commercial PAA 9.4 ppm): 0.295
- replicate OD (450 nm) (commercial PAA 9.4 ppm): 0.290 and 0.294 (2×) and 0.291 and 0.299 and 0.295 and 0.301 and 0.296
- blank-corrected mean OD (commercial PAA 18.75 ppm): 0.024
- mean replicate OD (450 nm) (commercial PAA 18.75 ppm): 0.295
- replicate OD (450 nm) (commercial PAA 18.75 ppm): 0.289 and 0.288 and 0.296 (2×) and 0.294 and 0.300 and 0.306 and 0.292

Compound: CC(=O)OCC(COC(C)=O)OC(C)=O [triacetin]
- biocidal effect (highest concentration examined (5455 ppm)): no biocidal effect
- blank-corrected mean OD (triacetin 341 ppm): 2.156
- mean replicate OD (450 nm) (triacetin 341 ppm): 2.571
- replicate OD (450 nm) (triacetin 341 ppm): 2.568 and 2.563 and 2.601 and 2.58 and 3.148 and 2.408 and 2.507 and 2.189
- blank-corrected mean OD (triacetin 682 ppm): 1.956
- mean replicate OD (450 nm) (triacetin 682 ppm): 2.371
- replicate OD (450 nm) (triacetin 682 ppm): 2.304 and 2.310 and 2.560 and 2.601 and 2.605 and 2.213 and 2.156 and 2.218
- blank-corrected mean OD (triacetin 1364 ppm): 1.978
- mean replicate OD (450 nm) (triacetin 1364 ppm): 2.393
- replicate OD (450 nm) (triacetin 1364 ppm): 2.140 and 2.266 and 2.485 and 2.632 and 2.823 and 2.337 and 2.265 and 2.198
- blank-corrected mean OD (triacetin 2728 ppm): 1.913
- mean replicate OD (450 nm) (triacetin 2728 ppm): 2.328
- replicate OD (450 nm) (triacetin 2728 ppm): 2.273 and 2.167 and 2.358 and 2.454 and 2.663 and 2.280 and 2.208 and 2.222
- blank-corrected mean OD (triacetin 5455 ppm): 1.835
- mean replicate OD (450 nm) (triacetin 5455 ppm): 2.250
- replicate OD (450 nm) (triacetin 5455 ppm): 2.229 and 2.124 and 2.263 and 2.407 and 2.539 and 2.210 and 2.136 and 2.091
